Assay results taken from patent US20120134979A1, “METHODS AND COMPOSITIONS FOR THE TREATMENT OF SICKLE CELL DISEASE” (priority 2010, published 2012).

Legend:
[1] = system: normal human RBCs; assay: 2,3-DPG levels in primary cultured normal human RBCs; format: cell-based; settings: for 2,3-DPG levels / production (agonist): primary cultured human RBCs from normal individuals, normoxic; for NECA-mediated 2,3-DPG induction (effect of antagonist): RBCs from normal individuals, 10 μM NECA, antagonists at 10 μM
Procedure: (§1) Isolation of total erythrocytes and treatment of human and mouse erythrocytes in vitro. Blood collected with heparin as an anti-coagulant was centrifuged at 240×g for 10 min at room temperature, followed by aspiration of plasma and white interface. Packed red blood cells (RBCs) were washed 3 times with culture media (F-10 Ham's with 1% penicillin/streptomycin, 10% fetal bovine serum (FBS), and re-suspended to 4% hematocrit (HCT). One ml of RBCs was added to each well of a 12-well plate. Normal RBCs purified from humans were treated with different concentrations of 5′-(N-ethyl-carboxamido) adenosine (NECA, an adenosine receptor agonist, Sigma-Aldrich, St. Louis, Mo.) ranging from 1-50 μM for different time points (from 1 to 18 hr) under normoxic conditions. Normal RBCs were treated with 10 μM NECA in the presence or absence of adenosine receptor antagonists, including theophylline, PSB36, SCH442416, MRS1754 and MRS3777 (Tocris Bioscience, St. Louis, Mo.) at 10 μM. In addition, normal RBCs were treated directly with the A2BR agonist (BAY 60-6583, Bayer HealthCare AG, Wuppertal, Germany) or the A2AR agonist (CGS21680) (Tocris). Similarly, the mouse RBCs were treated with or without NECA at 10 μM in the presence or absence of theophylline (10 μM). In addition, RBCs purified from 4 adenosine receptor deficient mice were treated with 10 μM NECA. After 18 hours, cells were collected and 2,3-DPG levels were measured as described below. RBCs were purified from SCD patients and treated with or without 10 μM NECA, 5 units/ml polyethylene glycol-adenosine deaminase (PEG-ADA) or 3 mmol/L glycolic acid (Sigma-Aldrich), 10 μM MRS1754 (A2BR antagonist) under ambient oxygen (normoxia) or different levels of hypoxic conditions (for 3 hours with shaking at 37° C. At the end of experiments, 2,3-DPG levels were measured and the percentage of sickled cells determined as described below.
(§2) 2,3-DPG analysis. 2,3-DPG concentration in RBCs was detected by a commercially available kit (Roche, Nutley, N.J., and as described in Ericson A, de Verdier C H. A modified method for the determination of 2,3-diphosphoglycerate in erythrocytes. Scandinavian journal of clinical and laboratory investigation. 1972; 29(1):84-90).

[2] = system: RBCs from SCD patients; assay: Hypoxia-induced sickling of RBCs from SCD patients; format: cell-based, human; settings: RBCs from individuals with SCD, hypoxic conditions
Procedure: as §1
(§3) Morphological study of erythrocytes and quantification of reticulocytes by flow cytometry. Blood smears were stained using the WG16-500 ml kit (Sigma-Aldrich) for sickled cells and observed using 100× oil immersion objective of Olympus BX60 microscope. […] The percentages of sickled cells among the counted cells were calculated. Reticulocyte was labeled by Retic-COUNT Reagent (Becton Dickinson) and quantified by flow cytometry (Perumbeti, et al., A novel human gamma-globin gene vector for genetic correction of sickle cell anemia in a humanized sickle mouse model: critical determinants for successful correction. Blood. 2009; 114(6):1174-1185).

[3] = system: RBCs from SCD patients; assay: Hypoxia-induced 2,3-DPG in erythrocytes purified from SCD patients; format: cell-based, human; settings: hypoxic conditions (2% oxygen)
Procedure: as §1, §2

[4] = system: normal mouse RBCs; assay: 2,3-DPG levels in isolated mouse RBCs treated in vitro; format: cell-based; settings: for NECA-mediated 2,3-DPG induction (effect of inhibitor): normal mouse RBCs
Procedure: as §1, §2

[5] = system: SCD Tg mice; assay: Life span of RBCs in SCD Tg mice (in vivo biotin labelling); design: species or system mouse
Procedure: Measurement of life span of RBCs in SCD Tg mice. SCD Tg mice were treated with or without PEG ? ADA (2.5 unit/week) for 8 weeks. At 6 week-treatment, RBCs were labeled in vivo by using N-hydroxysuccinimide (NHS) biotin and the life span of circulating red blood cells was measured as described (Perumbeti, et al. A novel human gamma-globin gene vector for genetic correction of sickle cell anemia in a humanized sickle mouse model: critical determinants for successful correction. Blood. 2009; 114(6):1174-1185).
Specifically, 50 mg/kg of NHS biotin was injected into the retro-orbital plexus of SCD Tg mice (prepared in 100 μl sterile saline just prior to injection; initially dissolved at 50 mg/ml in N,—N,-dimethylacetamide) Blood samples (only 5 μl) were collected after first day of biotin-injection from tail vein by venipuncture to determine the percentage of RBCs labeled with biotin. Subsequently, 5 μl of blood were obtained by tail vein every 3 days for measurement of biotinylated RBCs until the 10th day. The percentage of biotinylated RBCs was calculated by determining the fraction of peripheral blood cells labeled with Ter-119 (to identify RBCs) that were also labeled with a streptavidin-conjugated fluorochrome by flow cytometry.

[6] = system: SCD Tg mice; assay: 2,3-DPG in RBCs and saturated Hb in SCD Tg mice after chronic treatment; format: in vivo, mouse; settings: steady state, 8 weeks treatment
Procedure: (§4) Chronic PEG-ADA therapy. SCD transgenic mice, at eight weeks of age, were divided to two groups. One group was injected with 2.5 U PEG-ADA weekly for 8 weeks. This dosing protocol was designated SCD with PEG-ADA treatment regimen (SCD+PEG-ADA). Another group was injected with normal saline for 8 weeks; it was designated as SCD without PEG-ADA treatment regimen (SCD). Wild-type mice (C57Bl/6) used as control were injected with saline or PEG-ADA as with the SCD groups.
(§5) Chronic treatment with A2BR antagonist, PSB1115. SCD transgenic mice or wild type mice (eight weeks of age) were divided to two groups, one groups was injected with 200 μg of PSB1115 (an A2B receptor antagonist: obtained from Tocris Bioscience, St. Louis, Mo.) in PBS, daily for 8 weeks. One of groups was injected with saline.
as §2
Measurement of percentage of saturated Hb in mice. Percentage of saturated Hb (SpO2) in mice was measured by Oxysat (Kent Scientific Corp, CT). Mice were held in mouse holders (Kent Scientific Corp, CT) and Oxysat sensor was placed on a site approximately 1 cm from the base of the tail. When mouse was calm, the SpO2 was continuously recorded for about 2 minutes. The data were collected and SpO2 was calculated by average of SpO2 in two-minute measurement.

[7] = system: SCD Tg mice; assay: Organ weight, histology and heme content in SCD Tg mice after chronic treatment; format: in vivo, mouse; settings: 8 weeks treatment, lung, liver, spleen (PSB1115 also kidney)
Procedure: as §4, §5
Mouse organ isolation and histological analysis. Mice were anesthetized and body weight was determined. Organs were isolated and weighed. Half of each organ was quickly frozen in liquid nitrogen and then stored at −80° C. for heme content measurements as described below. The remaining half of each organ was fixed with 4% paraformaldehyde in PBS overnight at 4° C. Fixed tissues were rinsed in PBS, dehydrated through graded ethanol washes, and embedded in paraffin. 5 μm sections were collected on slides and stained with haematoxylin and eosin (H&E). Semiquantification of histological changes was analyzed by Image-Plus, Pro software.
Heme content measurement in multiple mouse tissues. Different organs were quickly removed and frozen in liquid nitrogen as described above. Heme was extracted from organs by homogenization with 1% Triton x-100 in PBS with 1× proteinase inhibitors (Roche) and the supernatant was collected following centrifugation at 20,000 g for 10 minutes at 4° C. Heme content was quantified following the instructions of QuantiChrom Heme Assay Kit (BioAssay Systems, Hayword, Calif.).

[8] = system: SCD Tg mice; assay: Hematological parameters of SCD Tg mice treated with PEG-ADA or PSB1115 for 8 weeks; format: in vivo, mouse; settings: 8 weeks treatment
Excerpt: Mice. Berkley sickle cell disease transgenic mice (SCD Tg mice), expressing exclusively human sickle hemoglobin (HbS) were purchased from The Jackson Laboratory Inc (Paszty, C. Transgenic and gene knock-out mouse models of sickle cell anemia and the thalassemias. Curr Opin Hematol 4, 88-93, 1997). C57BL/6 mice used as controls were purchased from Harlan Laboratories. Adenosine receptor deficient mice were obtained from the following sources: A1R-deficient mice (Jurgen Schnermann, NIDDK, NIH); A2AR-deficient mice (Jiang-Fan Chen, Boston University School of Medicine); A2BR-deficient mice (Michael R. Blackburn, University of Texas-Houston Medical School); and A3R-deficient mice (Marlene Jacobson, Merck Research Laboratories). All receptor deficient mice were backcrossed at least 10 generations onto the C57Blk/6J background and were genotyped according to established protocols (Sun, D., et al. Mediation of tubuloglomerular feedback by adenosine: evidence from mice lacking adenosine receptors. Proc Natl Acad Sci USA 98, 9983-9988, 2001; Nemeth, Z. H., et al. Adenosine receptor activation ameliorates type 1 diabetes. FASEB J, 2007; Chen, J. F., et al. A2A adenosine receptor deficiency attenuates brain injury induced by transient focal ischemia in mice. J Neurosci 19, 9192-9200, 1999; Salvatore, C. A., et al. Disruption of the A3 adenosine receptor gene in mice and its effect on stimulated inflammatory cells. The Journal of Biological Chemistry 275, 4429-4434, 2000). Animals were maintained in accordance with institutional and NIH guidelines under research protocols that were reviewed and approved by the University of Texas Health Science Center at Houston Animal Welfare Committee.
as §4, §5, §3

[9] = system: mouse RBCs; assay: cAMP levels in isolated mouse RBCs; format: cell-based
Procedure: Isolation of total erythrocytes and treatment of human and mouse erythrocytes in vitro. Blood collected with heparin as an anti-coagulant was centrifuged at 240×g for 10 min at room temperature, followed by aspiration of plasma and white interface. […] After 18 hours, cells were collected and 2,3-DPG levels were measured as described below. RBCs were purified from SCD patients and treated with or without 10 μM NECA, 5 units/ml polyethylene glycol-adenosine deaminase (PEG-ADA) or 3 mmol/L glycolic acid (Sigma-Aldrich), 10 μM MRS1754 (A2BR antagonist) under ambient oxygen (normoxia) or different levels of hypoxic conditions (for 3 hours with shaking at 37° C. At the end of experiments, 2,3-DPG levels were measured and the percentage of sickled cells determined as described below.
cAMP measurement. Quantitative assays for cAMP contents in RBCs were performed by using a commercial enzyme immunoassay kit (Assay Designs Inc., Michigan, USA).

In the case of N#Cc1c(N)nc(SCC(N)=O)c(C#N)c1-c1ccc(OCC2CC2)cc1 [BAY 60-6583], the “2,3-DPG levels / production (agonist)” value [1] is reported as “induced 2,3-DPG production in a dosage-dependent manner”.

In the case of O=S(=O)(NCCNC/C=C/c1ccc(Br)cc1)c1cccc2cnccc12 [H-89], the “percentage of sickled cells” value [2] is reported as “significantly reduced”, the “hypoxia-mediated induction of 2,3-DPG” value [3] is reported as “reduced” and the “NECA-mediated 2,3-DPG induction (effect of inhibitor)” value ([4]; NECA 10 μM) is reported as “significantly inhibited”.

CCCn1c(=O)[nH]c2nc(-c3ccc(S(=O)(=O)O)cc3)[nH]c2c1=O [PSB1115, reference compound] was tested, and the “fold increase of half-life of RBCs” value ([5]; chronic treatment vs untreated) was 2.75 fold, the “half-life of RBCs” value ([5]; chronic treatment, untreated 2 days) was 132 h and the “2,3-DPG levels in the RBCs” value [6] was “decreases”. For the same molecule, the “congestion, vascular damage and necrosis in multiple tissues (histology)” value [7] was “reduced”, the HCT [8] was 31.82 ± 3.43 % and the Hb [8] was 8.25 ± 0.29 g/dL. For the same molecule, the MCH [8] was 12.78 ± 0.46 pg, the MCHC [8] was 26.02 ± 1.82 g/dL and the MCV [8] was 49.17 ± 1.82 fL. It also gave an RDW [8] of 28.27 ± 1.36 %, a Reticulocyte [8] of 37.15 ± 3.27 % and a Sickle cell [8] of 9.07 ± 0.75 %. The WBC [8] was 11.95 ± 3.27 k/μl and the RBC ([8]; mean ± SEM) was 6.45 ± 0.45 M/μl.

For COc1ccc(CCCn2ncc3c2nc(N)n2nc(-c4ccco4)nc32)cc1 [SCH442416], the “NECA-mediated 2,3-DPG induction (effect of antagonist)” value [1] was “not”.

In the case of Cn1c(=O)c2[nH]cnc2n(C)c1=O [theophylline], the “NECA-mediated 2,3-DPG induction (effect of inhibitor)” value ([4]; NECA 10 μM) is reported as “prevented” and the “NECA-mediated 2,3-DPG induction (effect of antagonist)” value [1] is reported as “inhibited”.

CCNC(=O)[C@H]1O[C@@H](n2cnc3c(N)nc(NCCc4ccc(CCC(=O)O)cc4)nc32)[C@H](O)[C@@H]1O [CGS21680] was tested, and the “2,3-DPG levels / production (agonist)” value [1] was “not”.

In the case of CCNC(=O)[C@H]1O[C@@H](n2cnc3c(N)ncnc32)[C@H](O)[C@@H]1O [NECA, 5′-N-ethylcarboxamidoadenosine], the “percentage of sickled cells” value [2] is reported as “significantly increased”, the cAMP production ([9]; RBCs from A2BR-deficient mice) is reported as “not” and the cAMP production ([9]; RBCs from WT mice) is reported as “capable of inducing cAMP production”. The “hypoxia-mediated induction of 2,3-DPG” value [3] was “significantly stimulated a further increase”, the “NECA-mediated 2,3-DPG induction” value ([4]; RBCs from A2BR-deficient mice) was “did not occur” and the “2,3-DPG levels” value ([4]; primary normal mouse mature erythrocytes, NECA 10 μM, 18 hours) was “stimulated an increase”. The “2,3-DPG levels / production (agonist)” value [1] was “stimulated 2,3-DPG levels in a dosage and time-dependent manner”.

In the case of c1ccc(Oc2nc(NC3CCCCC3)c3[nH]cnc3n2)cc1 [MRS3777], the “NECA-mediated 2,3-DPG induction (effect of antagonist)” value [1] is reported as “not”.

In the case of CCCCn1c(=O)c2[nH]c(C34CC5CC(CC3C5)C4)nc2n(CCCO)c1=O [PSB36], the “NECA-mediated 2,3-DPG induction (effect of antagonist)” value [1] is reported as “not”.

With O=C(O)CO [glycolate, glycolic acid] the “percentage of sickled cells” value [2] was “significantly reduced” and the “hypoxia-mediated induction of 2,3-DPG” value [3] was “reduced”.

CCCn1c(=O)c2[nH]c(-c3ccc(OCC(=O)Nc4ccc(C#N)cc4)cc3)nc2n(CCC)c1=O [MRS1754] was tested, and the “percentage of sickled cells” value [2] was “significantly reduced”, the “hypoxia-mediated induction of 2,3-DPG” value [3] was “reduced” and the “NECA-mediated 2,3-DPG induction (effect of antagonist)” value [1] was “inhibited”.
